Measurements taken from the supplement of paper PMC10307832.

Tests used:
Assay in all cases: relative viability (nuclei count vs DMSO), 5 days (fraction); higher = more cells survive
HCC-366 = tested on: HCC-366
In short: (§1)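 Lung cancer cell lines, seeded in 1536-well plates, were treated the following day by pin tool with a single drug or with five library-drug doses (not always all listed) in √10 steps on top of a fixed anchor-drug dose. Cells were fixed and nuclei stained in one step after 5 days, and nuclei were counted. Relative viability is the nuclei count for treated wells divided by that for vehicle wells, reported as medians of duplicate plates.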

NCI-H2009 = tested on: NCI-H2009
In short: as §1

SK-LU-1 = tested on: SK-LU-1
In short: as §1

HCC-15 = tested on: HCC-15
In short: as §1

NCI-H2023 = tested on: NCI-H2023
In short: as §1

NCI-H460 = tested on: NCI-H460
In short: as §1

NCI-H1437 = tested on: NCI-H1437
In short: as §1

NCI-H1915 = tested on: NCI-H1915
In short: as §1

NCI-H1793 = tested on: NCI-H1793
In short: as §1

NCI-H596 = tested on: NCI-H596
In short: as §1

NCI-H2405 = tested on: NCI-H2405
In short: as §1

PC-14 = tested on: PC-14
In short: as §1

NCI-H650 = tested on: NCI-H650
In short: as §1

H3255 = tested on: H3255
In short: as §1

A-427 = tested on: A-427
In short: as §1

NCI-H3122 = tested on: NCI-H3122
In short: as §1

UMC-11 = tested on: UMC-11
In short: as §1

LXF-289 = tested on: LXF-289
In short: as §1

HARA = tested on: HARA
In short: as §1

NCI-H1975 = tested on: NCI-H1975
In short: as §1

NCI-H1755 = tested on: NCI-H1755
In short: as §1

PC-3 [JPC-3] = tested on: PC-3 [JPC-3]
In short: as §1

With `O=c1[nH]c2ccccc2n1C1CCN(CCCC(c2ccc(F)cc2)c2ccc(F)cc2)CC1` [Pimozide] + CS(=O)(=O)CCNCc1ccc(-c2ccc3ncnc(Nc4ccc(OCc5cccc(F)c5)c(Cl)c4)c3c2)o1 [Lapatinib] (partner 2 µM) the relative viability (HCC-366; first compound 0.08 µM) was 0.971, the relative viability (HCC-366; first compound 0.253 µM) was 1.02 and the relative viability (HCC-366; first compound 0.8 µM) was 0.988. The relative viability (HCC-366; first compound 2.53 µM) was 1.01, the relative viability (HCC-366; first compound 8 µM) was 1.06 and the relative viability (NCI-H2009; first compound 0.08 µM) was 0.955. For the same compound, the relative viability (NCI-H2009; first compound 0.253 µM) was 0.977, the relative viability (NCI-H2009; first compound 0.8 µM) was 0.861 and the relative viability (NCI-H2009; first compound 2.53 µM) was 0.715. The relative viability (NCI-H2009; first compound 8 µM) was 0.763, the relative viability (SK-LU-1; first compound 0.08 µM) was 0.773 and the relative viability (SK-LU-1; first compound 0.253 µM) was 0.846. For the same compound, the relative viability (SK-LU-1; first compound 0.8 µM) was 0.859, the relative viability (SK-LU-1; first compound 2.53 µM) was 0.826 and the relative viability (SK-LU-1; first compound 8 µM) was 0.731. It also gave a relative viability (HCC-15; first compound 0.08 µM) of 0.857, a relative viability (HCC-15; first compound 0.253 µM) of 0.889 and a relative viability (HCC-15; first compound 0.8 µM) of 0.701. For the same compound, the relative viability (HCC-15; first compound 2.53 µM) was 0.791, the relative viability (HCC-15; first compound 8 µM) was 0.777 and the relative viability (NCI-H2023; first compound 0.08 µM) was 0.793. For the same compound, the relative viability (NCI-H2023; first compound 0.253 µM) was 0.964, the relative viability (NCI-H2023; first compound 0.8 µM) was 0.592 and the relative viability (NCI-H2023; first compound 2.53 µM) was 0.729. The relative viability (NCI-H2023; first compound 8 µM) was 0.412, the relative viability (NCI-H460; first compound 0.08 µM) was 1.06 and the relative viability (NCI-H460; first compound 0.253 µM) was 0.859. It also gave a relative viability (NCI-H460; first compound 0.8 µM) of 0.949, a relative viability (NCI-H460; first compound 2.53 µM) of 0.856 and a relative viability (NCI-H460; first compound 8 µM) of 0.826. The relative viability (NCI-H1437; first compound 0.08 µM) was 0.858, the relative viability (NCI-H1437; first compound 0.253 µM) was 0.849 and the relative viability (NCI-H1437; first compound 0.8 µM) was 0.801. It also gave a relative viability (NCI-H1437; first compound 2.53 µM) of 0.636, a relative viability (NCI-H1437; first compound 8 µM) of 0.539 and a relative viability (NCI-H1915; first compound 0.08 µM) of 1.03. It also gave a relative viability (NCI-H1915; first compound 0.253 µM) of 0.927, a relative viability (NCI-H1915; first compound 0.8 µM) of 0.585 and a relative viability (NCI-H1915; first compound 2.53 µM) of 0.947. It also gave a relative viability (NCI-H1915; first compound 8 µM) of 0.926, a relative viability (NCI-H1793; first compound 0.08 µM) of 0.785 and a relative viability (NCI-H1793; first compound 0.253 µM) of 0.641. The relative viability (NCI-H1793; first compound 0.8 µM) was 0.593, the relative viability (NCI-H1793; first compound 2.53 µM) was 0.481 and the relative viability (NCI-H1793; first compound 8 µM) was 0.654. It also gave a relative viability (NCI-H596; first compound 0.08 µM) of 1, a relative viability (NCI-H596; first compound 0.253 µM) of 1.15 and a relative viability (NCI-H596; first compound 0.8 µM) of 1.16. For the same compound, the relative viability (NCI-H596; first compound 2.53 µM) was 1.01, the relative viability (NCI-H596; first compound 8 µM) was 0.87 and the relative viability (NCI-H2405; first compound 0.08 µM) was 1.02. It also gave a relative viability (NCI-H2405; first compound 0.253 µM) of 0.833, a relative viability (NCI-H2405; first compound 0.8 µM) of 0.984 and a relative viability (NCI-H2405; first compound 2.53 µM) of 1.04. It also gave a relative viability (NCI-H2405; first compound 8 µM) of 0.79, a relative viability (PC-14; first compound 0.253 µM) of 0.38 and a relative viability (PC-14; first compound 0.8 µM) of 0.297. The relative viability (PC-14; first compound 2.53 µM) was 0.334, the relative viability (PC-14; first compound 8 µM) was 0.325 and the relative viability (NCI-H650; first compound 0.08 µM) was 1.03. It also gave a relative viability (NCI-H650; first compound 0.253 µM) of 0.861, a relative viability (NCI-H650; first compound 0.8 µM) of 0.694 and a relative viability (NCI-H650; first compound 2.53 µM) of 0.716. For the same compound, the relative viability (NCI-H650; first compound 8 µM) was 0.835, the relative viability (H3255; first compound 0.253 µM) was 0.281 and the relative viability (H3255; first compound 0.8 µM) was 0.266. For the same compound, the relative viability (H3255; first compound 2.53 µM) was 0.229, the relative viability (H3255; first compound 8 µM) was 0.254 and the relative viability (A-427; first compound 0.08 µM) was 0.941. For the same compound, the relative viability (A-427; first compound 0.253 µM) was 1.03, the relative viability (A-427; first compound 0.8 µM) was 1.01 and the relative viability (A-427; first compound 2.53 µM) was 0.911. The relative viability (A-427; first compound 8 µM) was 0.985, the relative viability (NCI-H3122; first compound 0.08 µM) was 1 and the relative viability (NCI-H3122; first compound 0.253 µM) was 1. The relative viability (NCI-H3122; first compound 0.8 µM) was 0.813, the relative viability (NCI-H3122; first compound 2.53 µM) was 1 and the relative viability (NCI-H3122; first compound 8 µM) was 1.01. It also gave a relative viability (UMC-11; first compound 0.08 µM) of 1.07, a relative viability (UMC-11; first compound 0.253 µM) of 0.957 and a relative viability (UMC-11; first compound 0.8 µM) of 0.821. The relative viability (UMC-11; first compound 2.53 µM) was 0.934, the relative viability (UMC-11; first compound 8 µM) was 0.56 and the relative viability (LXF-289; first compound 0.08 µM) was 0.863. The relative viability (LXF-289; first compound 0.253 µM) was 0.937, the relative viability (LXF-289; first compound 0.8 µM) was 0.882 and the relative viability (LXF-289; first compound 2.53 µM) was 0.87. It also gave a relative viability (LXF-289; first compound 8 µM) of 0.829, a relative viability (HARA; first compound 0.08 µM) of 0.765 and a relative viability (HARA; first compound 0.253 µM) of 0.963. For the same compound, the relative viability (HARA; first compound 0.8 µM) was 0.755, the relative viability (HARA; first compound 2.53 µM) was 0.776 and the relative viability (HARA; first compound 8 µM) was 0.561. The relative viability (NCI-H1975; first compound 0.08 µM) was 0.928, the relative viability (NCI-H1975; first compound 0.253 µM) was 0.848 and the relative viability (NCI-H1975; first compound 0.8 µM) was 0.945. For the same compound, the relative viability (NCI-H1975; first compound 2.53 µM) was 0.897, the relative viability (NCI-H1975; first compound 8 µM) was 0.751 and the relative viability (NCI-H1755; first compound 0.08 µM) was 1.01. For the same compound, the relative viability (NCI-H1755; first compound 0.253 µM) was 1.01, the relative viability (NCI-H1755; first compound 0.8 µM) was 0.951 and the relative viability (NCI-H1755; first compound 2.53 µM) was 1.03. For the same compound, the relative viability (NCI-H1755; first compound 8 µM) was 0.849, the relative viability (PC-3 [JPC-3]; first compound 0.253 µM) was 0.414 and the relative viability (PC-3 [JPC-3]; first compound 0.8 µM) was 0.409. For the same compound, the relative viability (PC-3 [JPC-3]; first compound 2.53 µM) was 0.441 and the relative viability (PC-3 [JPC-3]; first compound 8 µM) was 0.406.
